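Five compound concentrations were applied to cells in 96-well plates for 48 hours; endpoints were derived by simple linear interpolation of the resulting dose-response curve. TGI is the concentration that stops growth completely.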
Experiments:
Assay in all cases: NCI-60 cell line screen, 48 h
SK-MEL-28 melanoma = system: SK-MEL-28 melanoma
T-47D breast = system: T-47D breast
SW-620 colon = system: SW-620 colon
RXF 393 renal = system: RXF 393 renal
DU-145 prostate = system: DU-145 prostate
HS 578T breast = system: HS 578T breast
OVCAR-5 ovarian = system: OVCAR-5 ovarian
COLO 205 colon = system: COLO 205 colon
UACC-257 melanoma = system: UACC-257 melanoma
HOP-92 NSCLC = system: HOP-92 NSCLC
TK-10 renal = system: TK-10 renal

Row | Structure (SMILES) | TGI (SK-MEL-28 melanoma) [µM] | TGI (T-47D breast) [µM] | TGI (SW-620 colon) [µM] | TGI (RXF 393 renal) [µM] | TGI (DU-145 prostate) [µM] | TGI (HS 578T breast) [µM] | TGI (OVCAR-5 ovarian) [µM] | TGI (COLO 205 colon) [µM] | TGI (UACC-257 melanoma) [µM] | TGI (HOP-92 NSCLC) [µM] | TGI (TK-10 renal) [µM]
1 | CC(=O)O[C@H]1CC[C@@]2(C)C(=CC[C@H]3[C@@H]4C/C(=C\c5ccncc5)[C@H](OC(C)=O)[C@@]4(C)CC[C@@H]32)C1 | 20.6 | 38.5 | 17.2 | 9.86 | 29.4 | > 100 | 36.6 | 18.2 | 33.3 | 19.7 | 47.9
2 | CCN(CC)CCNc1ccc2ncn3c4c(OC)ccc(=O)c4c(O)c1c23 | 27.1 | > 100 | > 43.8 | 34.1 | > 100 | > 100 | > 92.7 | > 100 | > 100 | > 62.1 | > 100
3 | Cc1cn(CCCCOC(=O)NC(CCCNC(N)=O)C(=O)O)c(=O)[nH]c1=O (configuration not stated) | > 100 | > 100 | > 100 | > 100 | > 100 | > 100 | > 100 | > 100 | > 100 | > 100 | > 100
4 | CCOC(=O)c1nc2cc(C(F)(F)F)ccc2nc1Oc1ccc(C(=O)OC)cc1 | > 100 | > 100 | > 100 | > 100 | > 100 | > 100 | > 100 | > 100 | > 100 | > 100 | > 100
5 | CC(=O)[C@]1(C)[C@H](C)O[C@](C)(CO)[C@H]1O[Si](C)(C)c1ccccc1 | > 100 | 97.9 | > 100 | 46 | > 100 | > 100 | > 100 | > 100 | > 100 | > 100 | > 100
6 | CC1=C2c3ccccc3N(S(=O)(=O)c3ccccc3)[C@H]2[C@H](C(=O)N2C3CC4CC[C@@]3(CS2(=O)=O)C4(C)C)CC1 (some centres not stated) | > 100 | > 100 | > 100 | 14.7 | > 100 | > 100 | > 100 | > 100 | > 100 | > 100 | > 100
7 | CCCCC1=CC1(C#N)[N+](=O)[O-] (configuration not stated) | > 100 | > 100 | > 100 | > 100 | > 100 | > 100 | > 100 | > 100 | > 100 | > 100 | > 100
8 | CC(=O)OC(C#N)CC(C)(C)/[N+]([O-])=[N+](\[O-])C(C)(C)CC(C#N)OC(C)=O (configuration not stated) | 96.4 | 50.2 | 30.2 | 27.4 | 43.8 | 55.2 | 95.4 | 32 | 37.8 | 27 | 31.2
9 | O=C(/C=C/c1ccc(O)cc1)c1cc(O)cc(O)c1 | 42.7 | 33 |  | 32 | 25.2 | > 100 | 29 | 31.9 | 30.3 | 31.9 | 45.8
10 | CN(C)c1ccc(/C=C2\N=C(c3ccccc3)N(/N=C3\C(=O)Nc4ccccc43)C2=O)cc1 | > 100 | > 100 | > 100 | > 100 | > 100 | > 100 | > 100 | 81 | > 100 | > 100 | > 100
11 | CCCCCCCCCCCCCCCCNc1ccc2c(c1)OCCOCCOCCOCCO2 | 18.8 | 9.2 | 13.3 | 5.58 | 15.3 | 9.1 | 14.2 | 3.18 | 6.91 | 5.99 | 25.7
12 | Cc1n(-c2ccccc2)c2c([n+]1Cc1ccc([N+](=O)[O-])cc1)C(=O)c1ccccc1C2=O | 3.59 | 3.43 | 6.63 | 21.5 | 3.28 | 5.51 | 3.46 | 3.07 | 3.16 | 4.3 | 19.3
13 | CC1C(=O)CC[C@@]2(C)C(=O)CCCC12O (some centres not stated) | > 100 | > 100 | > 100 | > 100 | > 100 | > 100 | > 100 | > 100 | > 100 | > 100 | > 100
14 | CN1CC(S(=O)(=O)c2ccccc2)CC(S(=O)(=O)c2ccccc2)C1c1ccccc1 (configuration not stated) | 36.7 | 50.6 | 34.4 | 37.3 | 60.8 | 84.1 | 32.7 | 28 | 41 | 37.7 | 28
15 | Cc1ccc(N=Nc2c(C)nn(C(=O)CC(=O)Nc3ccc(Cl)cc3)c2C)cc1C | > 100 | > 100 | > 100 | 67.2 | > 100 | 30.7 | > 100 | > 100 | > 100 | 64.3 | > 100
16 | O=C(Nc1ccc(N2C(=O)CSC2c2cccs2)cc1)c1ccc(N2C(=O)CSC2c2cccs2)cc1 (configuration not stated) | > 100 | > 100 | > 100 | > 100 | > 100 | > 100 | > 100 | > 100 | > 100 | > 100 | > 100
17 | CCOC(=O)NC(C(C(=O)OCC)C(=O)OCC)(C(F)(F)F)C(F)(F)F | > 100 | > 100 | > 100 | > 100 | > 100 | > 100 | > 100 | > 100 | > 100 | > 100 | > 100
18 | COC(=O)CCSC1=CC(=O)c2nc3ccccc3c3ccnc1c23 | 45.9 | 44.1 | > 53.1 | 37.1 | 48.1 | 67.8 | > 71.4 | > 47 | 33 | > 55.4 | 18.9
19 | Cc1ccc(C2SC(N)=Nc3c2c(C)nn3C(=O)c2ccc(Cl)cc2)cc1 (configuration not stated) | > 10 | > 10 | > 10 | > 10 | > 10 | > 10 | > 10 | > 10 | > 10 | > 10 | > 10
20 | CCN(CC)CCOCC1CCCN2CCCCC12 (configuration not stated) | > 100 | > 100 | > 100 | > 100 | > 100 | > 100 | > 100 | > 100 | > 100 | > 100 | > 100
21 | COc1ccc(/C(Cl)=C(\CNc2ccccn2)c2ccccc2)cc1OC | > 100 | > 100 | > 100 | > 100 | > 100 | > 100 | > 100 | > 100 | > 100 | > 100 | > 100
22 | O=C1CCCCCCCCCCC1CN(Cc1ccccc1)Cc1ccccc1 (configuration not stated) | > 100 | 63.9 | > 100 | 70.2 | > 100 | > 100 | > 100 | > 100 | > 100 | > 100 | > 100
23 | O=c1[nH]cnc2c1ncn2C1SC(CO)C(O)C1O (configuration not stated) | > 100 | > 100 | > 100 | > 100 | > 100 | > 100 | > 100 | > 100 | > 100 | > 100 | > 100
24 | C=CCN(c1cc(OCc2ccccc2)c2c(c1)c(C)cn2S(=O)(=O)c1ccccc1)S(C)(=O)=O | > 100 | > 100 | > 100 | > 100 | > 100 | > 100 | > 100 | > 100 | > 100 | > 100 | > 100
25 | COC(=O)c1c2c(cc3c1CC1(C3)Cc3ccc4c(c3C1=O)CCC4)CCC2 (configuration not stated) | > 100 | > 100 | > 100 | 3.14 | > 100 | 6.62 | > 100 |  | > 100 | > 70.6 | > 35.3
26 | O=C(Nn1c(-c2ccccc2)nc2ccccc2c1=O)c1ccc(O)cc1 | > 100 | > 100 | > 100 | > 100 | > 100 | > 100 | > 100 | > 100 | > 100 | > 100 | > 100
27 | COc1cc(S(=O)(=O)Nc2ccc(-c3csc(/N=C\C=C\c4ccccc4)n3)cc2)ccc1Cl | > 100 | 80.7 | > 100 | 80.2 | > 100 | > 100 | > 100 | > 100 | > 100 | 75.9 | > 100
28 | CCN(CC)c1nc(=O)c(C(=O)C(C)(C)C)c(C(C)(C)C)o1 | > 100 | > 100 | > 100 | > 100 | > 100 | > 100 | > 100 | > 100 | > 100 | > 100 | > 100
29 | Nc1ccc(-c2nc3ccccc3s2)cc1I | > 100 | > 100 | > 100 | > 100 | > 100 | > 100 | > 100 | > 100 | > 100 | > 54.5 | > 100
